The text below walks through data of ChEMBL document CHEMBL2439969, “Replacement of Thr32 and Gln34 in the C-terminal neuropeptide Y fragment 25-36 by cis-cyclobutane and cis-cyclopentane β-amino acids shifts selectivity toward the Y(4) receptor” (J Med Chem, 2013).

Experiment [1] addresses T1, Neuropeptide Y receptor type 5 (Homo sapiens, UniProt Q15761).
T1 sequence (Q15761 whole entry): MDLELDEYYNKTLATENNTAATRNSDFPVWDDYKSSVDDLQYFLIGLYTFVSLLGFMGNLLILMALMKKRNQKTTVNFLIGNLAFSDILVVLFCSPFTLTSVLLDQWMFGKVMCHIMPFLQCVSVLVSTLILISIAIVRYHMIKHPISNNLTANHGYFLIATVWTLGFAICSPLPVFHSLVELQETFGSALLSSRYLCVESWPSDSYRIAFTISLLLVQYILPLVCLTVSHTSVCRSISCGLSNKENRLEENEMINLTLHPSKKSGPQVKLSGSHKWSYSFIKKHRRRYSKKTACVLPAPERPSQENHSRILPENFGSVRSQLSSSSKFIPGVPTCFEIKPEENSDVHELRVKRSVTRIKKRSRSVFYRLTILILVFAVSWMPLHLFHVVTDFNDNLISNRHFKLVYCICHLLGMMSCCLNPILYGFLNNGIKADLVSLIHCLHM
The experiment can be described thus: Displacement of Cy5-pNPY from human Y5 receptor expressed in human HEC-1B cells after 90 to 120 mins by flow cytometry. Type of experiment: cell-based.

Experiment [2] has as its target T2, Neuropeptide Y receptor type 4 (Homo sapiens, UniProt P50391). Briefly: Displacement of Cy5-[K4]hPP from human Y4 receptor expressed in CHO cells after 90 to 120 mins by flow cytometry. Format: cell-based.
Experiment [3] deals with T3, Neuropeptide Y receptor type 1 (Homo sapiens, UniProt P25929).
T3 sequence (P25929 whole entry): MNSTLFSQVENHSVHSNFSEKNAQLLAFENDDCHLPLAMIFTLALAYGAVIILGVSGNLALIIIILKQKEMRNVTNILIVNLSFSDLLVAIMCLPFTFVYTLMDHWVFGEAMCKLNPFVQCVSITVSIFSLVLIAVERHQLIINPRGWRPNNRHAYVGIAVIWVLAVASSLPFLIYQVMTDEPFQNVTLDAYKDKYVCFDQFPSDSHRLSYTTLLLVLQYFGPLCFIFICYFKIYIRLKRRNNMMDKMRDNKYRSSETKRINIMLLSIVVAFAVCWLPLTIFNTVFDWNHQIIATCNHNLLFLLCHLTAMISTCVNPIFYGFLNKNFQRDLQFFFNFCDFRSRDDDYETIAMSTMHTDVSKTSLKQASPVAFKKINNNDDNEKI
Briefly: Displacement of Cy5-pNPY from human Y1 receptor expressed in HEL cells after 90 to 120 mins by flow cytometry. Type of experiment: cell-based.

Experiment [4] has as its target T4, Neuropeptide Y receptor type 2 (Homo sapiens, UniProt P49146).
T4 sequence (P49146 whole entry): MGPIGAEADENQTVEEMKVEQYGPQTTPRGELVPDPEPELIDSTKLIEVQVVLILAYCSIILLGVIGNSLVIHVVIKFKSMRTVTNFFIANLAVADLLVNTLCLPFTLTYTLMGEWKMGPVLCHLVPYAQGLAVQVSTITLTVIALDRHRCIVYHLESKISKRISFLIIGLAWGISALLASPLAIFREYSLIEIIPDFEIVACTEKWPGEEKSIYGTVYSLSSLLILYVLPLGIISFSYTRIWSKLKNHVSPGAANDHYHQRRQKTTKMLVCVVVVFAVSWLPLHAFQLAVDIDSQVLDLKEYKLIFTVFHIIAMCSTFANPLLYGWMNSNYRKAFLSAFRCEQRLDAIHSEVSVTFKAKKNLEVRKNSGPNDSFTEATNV
Briefly: Binding affinity to Y2 receptor (unknown origin) expressed in human LN319 cells by radioligand binding assay. Type of experiment: cell-based.

The nature of experiment [5]: Binding affinity to rabbit kidney Y2 receptor by radioligand binding assay. Set-up: species or system Oryctolagus cuniculus.
For experiment [6], the target named is T4, Neuropeptide Y receptor type 2. The experiment can be described thus: Displacement of Cy5-pNPY from human Y2 receptor expressed in CHO cells after 90 to 120 mins by flow cytometry. Format: cell-based.
Experiment [7] deals with T2, Neuropeptide Y receptor type 4. The experiment can be described thus: Agonist activity at human Y4 receptor expressed in sf9 cells assessed as hydrolysis of [gamma-33P]GTP after 2 mins by scintillation counting analysis.
Experiment [8] concerns the target T4, Neuropeptide Y receptor type 2. The experiment can be described thus: Binding affinity to human Y2 receptor expressed in human SMS-KAN cells by radioligand binding assay. Format: cell-based.
Experiment [9] concerns the target T2, Neuropeptide Y receptor type 4. The experiment can be described thus: Partial agonist activity at human Y4 receptor expressed in sf9 cells assessed as hydrolysis of [gamma-33P]GTP after 2 mins by scintillation counting analysis.
For experiment [10] the target is unchanged. The experiment can be described thus: Agonist activity at human Y4 receptor.
Experiment [11] has the same target. Briefly: Binding affinity to human Y4 receptor.
Experiment [12] addresses T1, Neuropeptide Y receptor type 5. The experiment can be described thus: Binding affinity to Y5 receptor (unknown origin).
Experiment [13] concerns the target T3, Neuropeptide Y receptor type 1. The experiment can be described thus: Binding affinity to Y1 receptor (unknown origin).
Experiment [14] has as its target T2, Neuropeptide Y receptor type 4. The experiment can be described thus: Partial agonist activity at human Y4 receptor expressed in sf9 cells assessed as hydrolysis of [gamma-33P]GTP after 2 mins by scintillation counting analysis relative to hPP.
Experiment [15] is described as follows: Binding affinity to Y2 receptor (unknown origin). Also noted: species or system Homo sapiens.

Residues, ends and D or L forms follow the SMILES beside them. Where only a bound is given, the exact number is not on record here.

T2 sequence (P50391 whole entry): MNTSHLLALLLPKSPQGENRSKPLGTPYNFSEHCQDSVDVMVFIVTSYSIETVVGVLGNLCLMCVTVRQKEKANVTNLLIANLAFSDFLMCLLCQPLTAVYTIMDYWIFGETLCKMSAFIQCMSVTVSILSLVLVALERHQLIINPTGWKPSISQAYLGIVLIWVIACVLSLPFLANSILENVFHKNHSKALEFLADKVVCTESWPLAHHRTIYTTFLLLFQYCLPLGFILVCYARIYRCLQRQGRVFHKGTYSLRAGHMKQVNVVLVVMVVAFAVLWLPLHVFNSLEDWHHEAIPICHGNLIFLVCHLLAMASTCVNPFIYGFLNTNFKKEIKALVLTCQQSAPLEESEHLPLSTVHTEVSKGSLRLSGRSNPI

On to Ac-RHYINLITRQRY-NH2, for which the Ki in experiment [1] is > 1000 nM; in experiment [2], > 1000 nM; in [3], > 1000 nM; in experiment [5], 10.2 nM; in experiment [6], 1510 nM; in [8], 7.1 nM. The 50% inhibitory concentration (IC50) in experiment [4] stood at 132 nM. Moreover, the 50% effective concentration (EC50) in experiment [7] stood at 530 nM.

As for `CC[C@H](C)[C@H](NC(=O)[C@H](Cc1ccc(O)cc1)NC(=O)[C@H](Cc1cnc[nH]1)NC(=O)[C@H](CCCN=C(N)N)NC(C)=O)C(=O)N[C@@H](CC(N)=O)C(=O)N[C@@H](CC(C)C)C(=O)N[C@H](C(=O)N[C@H](C(=O)N[C@@H](CCCN=C(N)N)C(=O)N[C@H]1CCC[C@H]1C(=O)N[C@@H](CCCN=C(N)N)C(=O)N[C@@H](Cc1ccc(O)cc1)C(N)=O)[C@@H](C)O)[C@@H](C)CC` (HELM PEPTIDE1{[ac].R.H.Y.I.N.L.I.T.R.[O=C([C@@H]1CCC[C@@H]1N[*:1])[*:2]].R.Y.[am]}$$$$V2.0), the inhibition constant Ki in experiment [1] was > 500 nM; in experiment [2], 10 nM; in experiment [3], > 1000 nM; in experiment [6] it was > 1000 nM. Further, the 50% effective concentration (EC50) in experiment [9] was determined as 41 nM.

In the case of `CC[C@H](C)[C@H](NC(=O)[C@H](CC(C)C)NC(=O)[C@H](CCSC)NC(=O)[C@H](CC(N)=O)NC(=O)[C@@H](NC(=O)[C@H](Cc1ccc(O)cc1)NC(=O)[C@H](CCCNC(=N)N)NC(=O)[C@H](CCCNC(=N)N)NC(=O)[C@H](CC(C)C)NC(=O)[C@H](CC(=O)O)NC(=O)[C@H](C)NC(=O)[C@H](C)NC(=O)[C@H](Cc1ccc(O)cc1)NC(=O)[C@H](CCC(N)=O)NC(=O)[C@H](C)NC(=O)[C@H](CCSC)NC(=O)[C@H](CCC(N)=O)NC(=O)[C@H](CCC(=O)O)NC(=O)[C@@H]1CCCN1C(=O)[C@@H](NC(=O)[C@H](C)NC(=O)[C@H](CC(N)=O)NC(=O)[C@H](CC(=O)O)NC(=O)CNC(=O)[C@@H]1CCCN1C(=O)[C@H](Cc1ccc(O)cc1)NC(=O)[C@@H](NC(=O)[C@@H]1CCCN1C(=O)[C@H](CCC(=O)O)NC(=O)[C@H](CC(C)C)NC(=O)[C@@H]1CCCN1C(=O)[C@H](C)N)C(C)C)[C@@H](C)O)[C@@H](C)O)C(=O)N[C@@H](CCCNC(=N)N)C(=O)N1CCC[C@H]1C(=O)N[C@@H](CCCNC(=N)N)C(=O)N[C@H](N)Cc1ccc(O)cc1` (HELM PEPTIDE1{A.P.L.E.P.V.Y.P.G.D.N.A.T.P.E.Q.M.A.Q.Y.A.A.D.L.R.R.Y.T.N.M.L.I.R.P.R.[N[C@H](Cc1ccc(O)cc1)N[*:1]]}$$$$V2.0), the Ki in [1] is 17 nM; in experiment [2] it was > 1000 nM; in experiment [3], 440 nM; in experiment [11], 0.53 nM; in experiment [6], > 5000 nM. The concentration giving a half-maximal response (EC50) in [10] was 11 nM.

In the case of `CC[C@H](C)[C@H](NC(=O)[C@H](Cc1ccc(O)cc1)NC(=O)[C@H](Cc1cnc[nH]1)NC(=O)[C@H](CCCN=C(N)N)NC(C)=O)C(=O)N[C@@H](CC(N)=O)C(=O)N[C@@H](CC(C)C)C(=O)N[C@@H](CCCN=C(N)N)C(=O)N[C@@H]1[C@H](C(=O)N[C@@H](CCCN=C(N)N)C(=O)N[C@@H]2[C@H](C(=O)N[C@@H](CCCN=C(N)N)C(=O)N[C@@H](Cc3ccc(O)cc3)C(N)=O)[C@H]2C(=O)OC)[C@H]1C(=O)OC` (HELM PEPTIDE1{[ac].R.H.Y.I.N.L.R.[COC(=O)[C@H]1[C@H](N[*:1])[C@@H]1C(=O)[*:2]].R.[COC(=O)[C@H]1[C@H](N[*:1])[C@@H]1C(=O)[*:2]].R.Y.[am]}$$$$V2.0), the inhibition constant (Ki) was 617 nM in experiment [12] and 50 nM in experiment [13].

Regarding `CC[C@H](C)[C@H](NC(=O)[C@H](Cc1ccc(O)cc1)NC(=O)[C@H](Cc1cnc[nH]1)NC(=O)[C@H](CCCNC(=N)N)NC(C)=O)C(=O)N[C@@H](CC(N)=O)C(=O)N[C@@H](CC(C)C)C(=O)N[C@H](C(=O)N[C@H](C(=O)N[C@@H](CCCNC(=N)N)C(=O)N[C@H]1CCC[C@H]1C(=O)N[C@@H](CCCNC(=N)N)C(=O)N[C@@H](Cc1ccc(O)cc1)C(N)=O)[C@@H](C)O)[C@@H](C)CC` (HELM PEPTIDE1{[ac].R.H.Y.I.N.L.I.T.R.[O=C([C@@H]1CCC[C@@H]1N[*:1])[*:2]].R.Y.[am]}$$$$V2.0), the maximal response (Emax) in experiment [14] came out at 71%.

`CC[C@H](C)[C@H](NC(=O)[C@H](Cc1ccc(O)cc1)NC(=O)[C@H](Cc1cnc[nH]1)NC(=O)[C@H](CCCNC(=N)N)NC(C)=O)C(=O)N[C@@H](CC(N)=O)C(=O)N[C@@H](CC(C)C)C(=O)N[C@H](C(=O)N[C@H](C(=O)N[C@@H](CCCNC(=N)N)C(=O)N[C@@H]1[C@H](C(=O)N[C@@H](CCCNC(=N)N)C(=O)N[C@@H](Cc2ccc(O)cc2)C(N)=O)[C@H]1C(=O)OC)[C@@H](C)O)[C@@H](C)CC` (HELM PEPTIDE1{[ac].R.H.Y.I.N.L.I.T.R.[COC(=O)[C@H]1[C@H](N[*:1])[C@@H]1C(=O)[*:2]].R.Y.[am]}$$$$V2.0): the Ki was 118 nM in experiment [12] and 29 nM in experiment [13].

Regarding Ac-RHYINLIYRLRY-NH2, the IC50 in experiment [15] amounted to 12 nM.

For `CCCC[C@H](NC(=O)[C@H](CC(N)=O)NC(=O)[C@@H](NC(=O)[C@H](Cc1ccc(O)cc1)NC(=O)[C@H](CCCNC(=N)N)NC(=O)[C@H](CCCNC(=N)N)NC(C)=O)[C@@H](C)CC)C(=O)N[C@@H](CC(C)C)C(=O)N[C@H](C(=O)N[C@@H](CCCNC(=N)N)C(=O)N1CCC[C@H]1C(=O)N[C@@H](CCCNC(=N)N)C(=O)N[C@@H](Cc1ccc(O)cc1)C(N)=O)[C@@H](C)O` (HELM PEPTIDE1{[ac].R.R.Y.I.N.[Nle].L.T.R.P.R.Y.[am]}$$$$V2.0), the Ki in experiment [1] is > 1000 nM; in experiment [2], 75 nM; in experiment [3], 281 nM; in experiment [6], > 1000 nM. Further, the EC50 in experiment [9] came to 53 nM. Moreover, in experiment [14], the Emax was determined as 70%.
